Measurements: PubChem BioAssay AID1963840 (Molecular Pharmacology Branch, DTP, NCI, 2024)

Tested on: 695427-040-R-J1-PDC complex spheroid viability
Experiment: Anticancer human tumor 695427-040-R-J1-PDC patient-derived colon adenocarcinoma cell line growth inhibition [POLQ]
Conditions: for IC50: curve of first compound; for viability, T/C: stronger effect = lower value
How it was run: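 Three-cell-type spheroids modelling solid tumor plus stroma served as the readout system; POL inhibitors were tested individually and in combination, concentration ranges set by clinical Cmax where known.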

[1] = second compound 0.0316 µM, first compound 0.0316 µM
[2] = second compound 0.0316 µM, first compound 0.1 µM
[3] = second compound 0.0316 µM, first compound 0.316 µM
[4] = second compound 0.0316 µM, first compound 1 µM
[5] = second compound 0.0316 µM, first compound 3.16 µM
[6] = second compound 0.0316 µM, first compound 10 µM
[7] = second compound 0.1 µM, first compound 0.0316 µM
[8] = second compound 0.1 µM, first compound 0.1 µM
[9] = second compound 0.1 µM, first compound 0.316 µM
[10] = second compound 0.1 µM, first compound 1 µM
[11] = second compound 0.1 µM, first compound 3.16 µM
[12] = second compound 0.1 µM, first compound 10 µM
[13] = second compound 0.316 µM, first compound 0.0316 µM
[14] = second compound 0.316 µM, first compound 0.1 µM
[15] = second compound 0.316 µM, first compound 0.316 µM
[16] = second compound 0.316 µM, first compound 1 µM
[17] = second compound 0.316 µM, first compound 3.16 µM
[18] = second compound 0.316 µM, first compound 10 µM
[19] = second compound 1 µM, first compound 0.0316 µM
[20] = second compound 1 µM, first compound 0.1 µM
[21] = second compound 1 µM, first compound 0.316 µM
[22] = second compound 1 µM, first compound 1 µM
[23] = second compound 1 µM, first compound 3.16 µM
[24] = second compound 1 µM, first compound 10 µM
[25] = second compound 3.16 µM, first compound 0.0316 µM
[26] = second compound 3.16 µM, first compound 0.1 µM
[27] = second compound 3.16 µM, first compound 0.316 µM
[28] = second compound 3.16 µM, first compound 1 µM
[29] = second compound 3.16 µM, first compound 3.16 µM
[30] = second compound 3.16 µM, first compound 10 µM
[31] = second compound 10 µM, first compound 0.0316 µM
[32] = second compound 10 µM, first compound 0.1 µM
[33] = second compound 10 µM, first compound 0.316 µM
[34] = second compound 10 µM, first compound 1 µM
[35] = second compound 10 µM, first compound 3.16 µM
[36] = second compound 10 µM, first compound 10 µM
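Note: spheroids exposed to compounds for seven days.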
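Throughout, for viability, T/C: 100% = DMSO vehicle control viability.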

C#Cc1c(F)ccc2cc(O)cc(-c3ncc4c(N5CC6CCC(C5)N6)nc(OCC56CCCN5CC(F)C6)nc4c3F)c12 (stereo not given) + Cc1cccc(N(C)C(=O)C2C(O)CCN2c2nc(C)cc(C(F)(F)F)c2C#N)c1
IC50 (second compound 0.0316 µM): > 10 µM | IC50 (second compound 0.1 µM): > 10 µM | IC50 (second compound 0.316 µM): > 10 µM | IC50 (second compound 1 µM): > 10 µM | IC50 (second compound 3.16 µM): > 10 µM | IC50 (second compound 10 µM): > 10 µM | viability, T/C [1]: 106% | viability, T/C [2]: 99.3% | viability, T/C [3]: 98% | viability, T/C [4]: 104% | viability, T/C [5]: 88.3% | viability, T/C [6]: 86.9% | viability, T/C [7]: 102% | viability, T/C [8]: 100% | viability, T/C [9]: 90.8% | viability, T/C [10]: 96% | viability, T/C [11]: 92.1% | viability, T/C [12]: 78.8% | viability, T/C [13]: 98.3% | viability, T/C [14]: 99% | viability, T/C [15]: 97.8% | viability, T/C [16]: 104% | viability, T/C [17]: 90.8% | viability, T/C [18]: 80.6% | viability, T/C [19]: 98% | viability, T/C [20]: 92.4% | viability, T/C [21]: 94.3% | viability, T/C [22]: 92.1% | viability, T/C [23]: 89.2% | viability, T/C [24]: 83.2% | viability, T/C [25]: 88.5% | viability, T/C [26]: 94.3% | viability, T/C [27]: 97% | viability, T/C [28]: 90.4% | viability, T/C [29]: 91% | viability, T/C [30]: 76.1% | viability, T/C [31]: 92.8% | viability, T/C [32]: 84.7% | viability, T/C [33]: 85.4% | viability, T/C [34]: 84.7% | viability, T/C [35]: 73.2% | viability, T/C [36]: 61.5%

CC1COCCN1c1cc(C2(O)CC3CCC(C2)O3)c2cnn(-c3ccn[nH]3)c2n1 (stereo not given) + Cc1cccc(N(C)C(=O)C2C(O)CCN2c2nc(C)cc(C(F)(F)F)c2C#N)c1
IC50 (second compound 0.0316 µM): 6.2 µM | IC50 (second compound 0.1 µM): 7.33 µM | IC50 (second compound 0.316 µM): 6.13 µM | IC50 (second compound 1 µM): 6.54 µM | IC50 (second compound 3.16 µM): 4.63 µM | IC50 (second compound 10 µM): 2.82 µM | viability, T/C [1]: 102% | viability, T/C [2]: 84.5% | viability, T/C [3]: 76.9% | viability, T/C [4]: 66% | viability, T/C [5]: 52.5% | viability, T/C [6]: 47.3% | viability, T/C [7]: 102% | viability, T/C [8]: 91.3% | viability, T/C [9]: 85% | viability, T/C [10]: 70.8% | viability, T/C [11]: 55.9% | viability, T/C [12]: 47.9% | viability, T/C [13]: 109% | viability, T/C [14]: 88.1% | viability, T/C [15]: 80.6% | viability, T/C [16]: 67.1% | viability, T/C [17]: 58.4% | viability, T/C [18]: 44% | viability, T/C [19]: 100% | viability, T/C [20]: 91.4% | viability, T/C [21]: 82.6% | viability, T/C [22]: 66.6% | viability, T/C [23]: 56.8% | viability, T/C [24]: 46.3% | viability, T/C [25]: 96% | viability, T/C [26]: 92.6% | viability, T/C [27]: 73.8% | viability, T/C [28]: 65.6% | viability, T/C [29]: 53.8% | viability, T/C [30]: 43.5% | viability, T/C [31]: 93.3% | viability, T/C [32]: 88.6% | viability, T/C [33]: 70.3% | viability, T/C [34]: 56.1% | viability, T/C [35]: 51.5% | viability, T/C [36]: 45.6%

CCc1cc2c(N3CCc4c(cc(Cn5ccnc5)cc4-c4cn(C)nc4C(F)(F)F)C3=O)cc(C)nc2c(OC)n1 + Cc1cccc(N(C)C(=O)C2C(O)CCN2c2nc(C)cc(C(F)(F)F)c2C#N)c1
IC50 (second compound 0.0316 µM): > 10 µM | IC50 (second compound 0.1 µM): > 10 µM | IC50 (second compound 0.316 µM): > 10 µM | IC50 (second compound 1 µM): > 10 µM | IC50 (second compound 3.16 µM): > 10 µM | IC50 (second compound 10 µM): > 10 µM | viability, T/C [1]: 102% | viability, T/C [2]: 99.6% | viability, T/C [3]: 104% | viability, T/C [4]: 108% | viability, T/C [5]: 108% | viability, T/C [6]: 98.3% | viability, T/C [7]: 110% | viability, T/C [8]: 100% | viability, T/C [9]: 102% | viability, T/C [10]: 107% | viability, T/C [11]: 103% | viability, T/C [12]: 103% | viability, T/C [13]: 108% | viability, T/C [14]: 105% | viability, T/C [15]: 93.2% | viability, T/C [16]: 105% | viability, T/C [17]: 110% | viability, T/C [18]: 95.7% | viability, T/C [19]: 117% | viability, T/C [20]: 95.6% | viability, T/C [21]: 88.3% | viability, T/C [22]: 95.4% | viability, T/C [23]: 108% | viability, T/C [24]: 85.2% | viability, T/C [25]: 99.8% | viability, T/C [26]: 92.2% | viability, T/C [27]: 91.8% | viability, T/C [28]: 106% | viability, T/C [29]: 97.5% | viability, T/C [30]: 108% | viability, T/C [31]: 102% | viability, T/C [32]: 98.7% | viability, T/C [33]: 87.8% | viability, T/C [34]: 95.4% | viability, T/C [35]: 93.9% | viability, T/C [36]: 89.7%

COc1cc2cc(C(=O)CCC(=O)O)sc2cc1OC + Cc1cccc(N(C)C(=O)C2C(O)CCN2c2nc(C)cc(C(F)(F)F)c2C#N)c1
IC50 (second compound 0.0316 µM): > 10 µM | IC50 (second compound 0.1 µM): > 10 µM | IC50 (second compound 0.316 µM): > 10 µM | IC50 (second compound 1 µM): > 10 µM | IC50 (second compound 3.16 µM): > 10 µM | IC50 (second compound 10 µM): > 10 µM | viability, T/C [1]: 100% | viability, T/C [2]: 106% | viability, T/C [3]: 96.5% | viability, T/C [4]: 99.5% | viability, T/C [5]: 105% | viability, T/C [6]: 92% | viability, T/C [7]: 111% | viability, T/C [8]: 97.1% | viability, T/C [9]: 98.2% | viability, T/C [10]: 95.3% | viability, T/C [11]: 111% | viability, T/C [12]: 88.3% | viability, T/C [13]: 112% | viability, T/C [14]: 106% | viability, T/C [15]: 106% | viability, T/C [16]: 108% | viability, T/C [17]: 114% | viability, T/C [18]: 100% | viability, T/C [19]: 108% | viability, T/C [20]: 101% | viability, T/C [21]: 108% | viability, T/C [22]: 98.9% | viability, T/C [23]: 103% | viability, T/C [24]: 88.8% | viability, T/C [25]: 96.7% | viability, T/C [26]: 98.3% | viability, T/C [27]: 102% | viability, T/C [28]: 101% | viability, T/C [29]: 97.9% | viability, T/C [30]: 95.4% | viability, T/C [31]: 94.3% | viability, T/C [32]: 82.2% | viability, T/C [33]: 101% | viability, T/C [34]: 89.5% | viability, T/C [35]: 99.4% | viability, T/C [36]: 90.9%

O=C(Nc1ccc(O)c(NS(=O)(=O)c2ccc(F)cc2)c1)c1ccc(-c2ccccc2)cc1 + Cc1cccc(N(C)C(=O)C2C(O)CCN2c2nc(C)cc(C(F)(F)F)c2C#N)c1
IC50 (second compound 0.0316 µM): > 10 µM | IC50 (second compound 0.1 µM): > 10 µM | IC50 (second compound 0.316 µM): > 10 µM | IC50 (second compound 1 µM): > 10 µM | IC50 (second compound 3.16 µM): > 10 µM | IC50 (second compound 10 µM): > 10 µM | viability, T/C [1]: 111% | viability, T/C [2]: 107% | viability, T/C [3]: 92.2% | viability, T/C [4]: 103% | viability, T/C [5]: 108% | viability, T/C [6]: 98.4% | viability, T/C [7]: 105% | viability, T/C [8]: 101% | viability, T/C [9]: 95.9% | viability, T/C [10]: 99.5% | viability, T/C [11]: 112% | viability, T/C [12]: 88.2% | viability, T/C [13]: 104% | viability, T/C [14]: 103% | viability, T/C [15]: 97.4% | viability, T/C [16]: 101% | viability, T/C [17]: 111% | viability, T/C [18]: 86.9% | viability, T/C [19]: 109% | viability, T/C [20]: 95.9% | viability, T/C [21]: 101% | viability, T/C [22]: 94.4% | viability, T/C [23]: 115% | viability, T/C [24]: 92.3% | viability, T/C [25]: 97.6% | viability, T/C [26]: 101% | viability, T/C [27]: 93.5% | viability, T/C [28]: 103% | viability, T/C [29]: 103% | viability, T/C [30]: 93.6% | viability, T/C [31]: 103% | viability, T/C [32]: 92.2% | viability, T/C [33]: 96.1% | viability, T/C [34]: 94% | viability, T/C [35]: 102% | viability, T/C [36]: 82.6%
